{"source": "patent US11071727B2", "about": "“Therapeutic targeting of proteolytic cleavage of the mixed lineage leukemia gene product (MLL1) by taspase1 using kinase inhibitors” (Northwestern University, priority 2018, dated 2021)", "key": {"MLL1 chromatin occupancy": {"system": "MLL1 chromatin occupancy", "assay": "ChIP-seq of MLL1 occupancy in 293T cells", "assay_type": "cell-based, human", "conditions": "relative to DMSO control", "method": "FIG. 6. CKII inhibition increases genome-wide MLL occupancy and excludes SEC recruitment in MLL leukemia cells. (A) and (B) MLL1C occupancy in CX-4945 or TTP22 treated cells were shown relative to DMSO control. […] (C) Track examples of the MLL1 occupancy at the promoter regions of ELF2 and C6orf211. (D) CX-4945 inhibition of leukemia cell proliferation. Multiple MLL leukemia (orange lines) and non-MLL leukemia (blue lines) were cultured with different doses of CX-4945 for 3 days. Cell number was determined by cell counter and normalized to DMSO control. (E) SEM cells were treated with 0, 5 or 10 μM of CX-4945 for 30 hours and western blot was performed to determine the MLL1 full-length protein levels and MLL-AF4 fusion protein levels. (F) MLL-AFF1, AFF4 and ELL2 occupancies were decreased by CX-4945 treatment in SEM cells.\nChIP-seq Analysis. 5×10^7 cells were used for each ChIP assay, as performed as previously described (Chen et al. 2015). Peaks were called with MACS v1.4.2 (Zhang et al. 2008) using default parameters and were annotated by the HOMER software (Heinz et al. 2010). Metaplots were generated using ngsplot (Shen et al. 2014). […] Differential occupancy of MLL1 was evaluated by edgeR, and peaks with Benjamini-Hochburg adjusted p-values less than 0.05 were considered to be differentially occupied. […]"}, "[1]": {"system": "MLL1 cleavage by taspase1", "assay": "in vitro taspase1 cleavage assay on lysates of pretreated taspase1 KO cells", "assay_type": "biochemical, human", "conditions": "293T taspase1 KO cells pretreated 30 hours with CX-4945 (3 μM) or TTP22 (10 μM), compared with DMSO control", "method": "FIG. 5. CKII inhibitors selectively increase full-length MLL1 protein levels by decreasing the phosphorylation of MLL1 near the cleavage sites. (A) Conservation of the sequences flanking MLL1-CS2, MLL2 and TFIIA cleavage sites and phosphorylated serine and threonine residues after the cleavage sites (highlighted in red). (B) and (C) 293T cells were transfected with vector control (VT), WT, AA or DD reporter constructs of MLL1-p75 or TFIIA. Western blot was performed with anti-Flag antibody for MLL1 (p75: FL, p47: cleaved) or TFIIA (p54: FL, p47: cleaved). (D) and (E) 293T cells were transfected with WT or AA reporter constructs of MLL1-p75 or TFIIA in the presence or absence of HA-taspase1. Western blot was performed with anti-Flag antibody for MLL1 or TFIIA, or anti-HA antibody for taspase1. (F) 293T cells were infected with shRNAs against CKIIα or CKIIα′. Western blot was performed with anti-MLL1C antibody for MLL1 full-length protein levels, and CKIIα or CKIIα′ for knockdown efficiency. (G) 293T cells were treated with DMSO or 10 μM CX-4945 for 30 hours. Cells were harvested and lysed for Western blot against MLL1, MLL2 or TFIIA using β-tubulin as the loading control. […]\nin vitro taspase1 cleavage assay. […] Cleavage efficiency was detected by western blot against MLL1C and TFIIA using Hsp90 as the loading control."}, "MLL1": {"system": "MLL1", "assay": "Western blot of full-length MLL1 protein levels in cells treated with CKII inhibitors", "assay_type": "cell-based, human", "conditions": "293T, MCF7 and HCT116 cells, 0-20 μM, 30 hours, Western blot with MLL1C antibody", "method": "FIG. 5. CKII inhibitors selectively increase full-length MLL1 protein levels by decreasing the phosphorylation of MLL1 near the cleavage sites. (A) Conservation of the sequences flanking MLL1-CS2, MLL2 and TFIIA cleavage sites and phosphorylated serine and threonine residues after the cleavage sites (highlighted in red). (B) and (C) 293T cells were transfected with vector control (VT), WT, AA or DD reporter constructs of MLL1-p75 or TFIIA. Western blot was performed with anti-Flag antibody for MLL1 (p75: FL, p47: cleaved) or TFIIA (p54: FL, p47: cleaved). (D) and (E) 293T cells were transfected with WT or AA reporter constructs of MLL1-p75 or TFIIA in the presence or absence of HA-taspase1. Western blot was performed with anti-Flag antibody for MLL1 or TFIIA, or anti-HA antibody for taspase1. (F) 293T cells were infected with shRNAs against CKIIα or CKIIα′. Western blot was performed with anti-MLL1C antibody for MLL1 full-length protein levels, and CKIIα or CKIIα′ for knockdown efficiency. (G) 293T cells were treated with DMSO or 10 μM CX-4945 for 30 hours. Cells were harvested and lysed for Western blot against MLL1, MLL2 or TFIIA using β-tubulin as the loading control. (H) and (I) 293T taspase1 KO cells were pre-treated with CX-4945 (3 μM) or TTP22 (10 μM) for 30 hours. Whole cell lysates from the two conditions were incubated with increasing concentrations of his-taspase1 and subject to in vitro taspase1 assay.\nFIG. 13. CKII inhibitors increase full-length MLL1 protein levels. (A) Prediction of kinases that phosphorylate MLL1 near the taspase1 cleavage site. (B) Structure of the CKII inhibitors CX-4945, TTP22, DMAT and TTB. (C) Comparison of the IC50 and molecular weight of the four CKII inhibitors. […] Quantification of the band intensities was performed by ImageJ software. (E) and (F) in vitro taspase1 cleavage assay. Taspase1 KO cell lysates were incubated with recombinant his-tagged taspase1 (0, 1, 10, 100 or 1000 ng) and subject to in vitro taspase1 cleavage assay. Cleavage efficiency was shown as the blotting for MLL1 and TFIIA using Hsp90 as the loading control.\nCell culture. […]"}}, "data": [{"smiles": "Cc1ccc(-c2csc3ncnc(SCCC(=O)O)c23)cc1", "note": "[TTP22, 3-[[5-(4-Methylphenyl)thieno[2,3-d]pyrimidin-4-yl]thio]propanoic acid]", "values": [{"measurement": "MLL1 occupancy (genome-wide)", "setting": "MLL1 chromatin occupancy", "result": "global increase of MLL1 occupancy"}, {"measurement": "cleavage efficiency by recombinant taspase1 protein", "setting": "[1]", "result": "cleavage efficiency was significantly diminished"}, {"measurement": "MLL1 full-length protein levels", "setting": "MLL1", "result": "dose-dependent increase of MLL1 full-length protein levels"}]}]}
